In brackets after ≈: the same amount, converted by molar mass. Like-named read-outs stand apart in the source and are kept apart here.
Columns and labels:
L929 mouse fibroblasts = experiment: Cytotoxicity toward L929 mouse fibroblasts (Scynexis); format: cell-based
MDCK-MDR1 cell monolayer = details: dog, MDCK-MDR1, 1 h, 3 µM
T. b. brucei 427 [1] = experiment: T. b. brucei 427 growth inhibition (Scynexis); format: cell-based, Trypanosoma brucei brucei; details: for Selectivity Index: L929 vs T. b. brucei; for IC50: Trypanosoma brucei, growth inhibition of T. b. brucei 427, mean ± SD
in vitro = details: dog, MDCK-MDR1, Permeability Papp
[2] = tested on: human lung fibroblasts (MRC-5 cells); experiment: Cytotoxicity toward MRC-5 cells (University of Antwerp); format: cell-based; details: Homo sapiens, MRC5, cytotoxicity toward human lung fibroblasts
[3] = Mouse pharmacokinetics (plasma, whole blood, brain); format: in vivo, male CD-1 mice; details: male, CD-1, mouse; for bioavailability: po; for Vd: read-out: Vdss; for half-life: read-out: t1/2 (converted)
Description: In order to determine the suitability of the more permeable hits for in vivo efficacy studies, we first measured their aqueous solubilities, and their tendencies to metabolise, following a 1 h incubation with CD-1 mouse liver S9 subcellular fractions.[14] […] This led us to probe their in vivo pharmacokinetic (PK) profiles in mice, examining concentration levels in plasma, whole blood and brain tissue following both intravenous and oral administration (Table 2; for further experimental details, see the Supporting Information). […]
Mouse Pharmacokinetics. The in-life portion of PK testing was carried out by ViviSource Laboratories, Inc., Mass achusetts, USA, and PK samples were anal ysed by Sc ynexis, Inc.
Test compounds (9, 12, 17, and 19) w er e each administered as single doses to groups of 10 male CD-1 mice by bolus intravenous injection or oral gavage. Intravenous dosing (at a nominal dose of 2 mg/kg) emplo yed a solution vehicle comprising either 20% EtOH, 20% propylene gl ycol, and 30% PEG -400 in normal saline (for powders 9, 17, and 19) or 0.5% (hydrox yprop yl)meth ylcellulose, 0.4% Tween 80, 0.5% benz yl alcohol, and 20% DMSO i n deionised water (for oil 12). […]
in 0.5% methylcellulose, 0.08% Tween 80 in water ( ex cept fo r oil 12, where the formulation additionally contained 20% DMSO). […]

[4] = Kinetic aqueous solubility in pH 7.4 PBS; format: physicochemical
Source text: Table 1 Inhibitory potency, metabolic stability, aqueous solubility, and MDCK-MDR1 cell permeability for 15 screening hits against T. b. brucei. | column: Solubility ^c / (µg/mL)

Trypanosoma cruzi = experiment: T. cruzi growth inhibition (University of Antwerp); format: cell-based; details: Trypanosoma cruzi, mean of 2 to 5 determinations
Mouse liver S9 stability = format: in vitro ADME; details: CD-1, mouse, mouse liver S9 subcellular fraction, half-life in mouse liver S9 fraction; read-out: Mouse S9 t1/2
T. b. brucei 427 [5] = experiment: T. b. brucei growth inhibition (University of Antwerp); format: cell-based, Trypanosoma brucei brucei; details: Trypanosoma brucei, T. b. brucei 427; mean of 2 to 5 determinations; read-out: IC50 T. b. bruc
Leishmania infantum = experiment: L. infantum growth inhibition (University of Antwerp); format: cell-based; details: Leishmania infantum, mean of 2 to 5 determinations
T. b. rhodesiense = T. b. rhodesiense growth inhibition (University of Antwerp); format: cell-based, Trypanosoma brucei rhodesiense; details: Trypanosoma brucei, RHODESIENSE, mean of 2 to 5 determinations; read-out: IC50 T. b. rhod
[6] = Mouse liver microsomal stability; format: in vitro ADME; details: CD-1 mouse liver microsomes
[7] = Human liver microsomal stability; format: in vitro ADME; details: pooled human liver microsomes
[8] = brain, from dose normalised AUClast values, read-out: F (oral bioavailability)
[9] = whole blood, from dose normalised AUClast values, read-out: F (oral bioavailability)
[10] = brain, intravenous, corrected doses 0.5, 1.1, 2.9, 2.0 mg/kg for 9, 12, 17, 19
[11] = brain, oral, corrected doses 62, 50, 78, 49 mg/kg for 9, 12, 17, 19
[12] = plasma, intravenous, corrected doses 0.5, 1.1, 2.9, 2.0 mg/kg for 9, 12, 17, 19
[13] = plasma, oral, corrected doses 62, 50, 78, 49 mg/kg for 9, 12, 17, 19
[14] = whole blood, intravenous, corrected doses 0.5, 1.1, 2.9, 2.0 mg/kg for 9, 12, 17, 19
[15] = whole blood, oral, corrected doses 62, 50, 78, 49 mg/kg for 9, 12, 17, 19

O=[N+]([O-])c1cn2c(n1)OC[C@@H](OCC#Cc1ccc(-c3ccc(C(F)(F)F)cc3)cn1)C2 [Compound 16]
IC50 (L929 mouse fibroblasts): > 10 mg/L | absolute AQ (MDCK-MDR1 cell monolayer): ≥ 0.3 | Selectivity Index (T. b. brucei 427 [1]): >19 | IC50 (T. b. brucei 427 [1]): 0.53 ± 0.23 mg/L (≈ 1.19 µM)

O=[N+]([O-])c1cn2c(n1)OC[C@@H](OCCCc1ccc(-c3ccc(Oc4ccc(C(F)(F)F)cc4)cc3)cc1)C2 [Compound 13]
Papp at 1 h, 3 µM (in vitro): < 0.8 nm/s | IC50 (L929 mouse fibroblasts): > 10 mg/L | Permeability Papp (MDCK-MDR1 cell monolayer): <0.8 nm/s | Selectivity Index (T. b. brucei 427 [1]): >43 | IC50 (T. b. brucei 427 [1]): 0.23 ± 0.04 mg/L (≈ 0.426 µM)

O=[N+]([O-])c1cn2c(n1)[S+]([O-])CC(OCc1ccc(OCc3ccccc3)cc1)C2 (stereo not drawn) [Compound 9]
IC50 [2]: 64 µM | Papp at 1 h, 3 µM (in vitro): 771 nm/s | IC50 (L929 mouse fibroblasts): > 10 mg/L | bioavailability ([3]; 0.5 mg/kg, plasma, from dose normalised AUClast values, read-out: F (oral bioavailability)): 1.4% | bioavailability [3, 8]: 0.8% | bioavailability ([3]; over the three sampling sites (plasma, whole blood, brain), read-out: oral bioavailability): < 1.5% | bioavailability [3, 9]: 0.8% | AUC(0-t) [3, 10]: 0.304 µg·h/mL | clearance [3, 10]: 1.5 L/h/kg | Vd [3, 10]: 1.2 L/kg | half-life [3, 10]: 1.6 h | AUC(0-t) [3, 11]: 0.29 µg·h/mL | Cmax [3, 11]: 0.06 µg/mL | Tmax [3, 11]: 2 h | half-life [3, 11]: 3.2 h | AUC(0-t) [3, 12]: 0.505 µg·h/mL | clearance [3, 12]: 0.97 L/h/kg | Vd [3, 12]: 0.59 L/kg | half-life [3, 12]: 0.43 h | AUC(0-t) [3, 13]: 0.869 µg·h/mL | Cmax [3, 13]: 0.2 µg/mL | Tmax [3, 13]: 2 h | half-life [3, 13]: 3.7 h | AUC(0-t) [3, 14]: 0.489 µg·h/mL | clearance [3, 14]: 0.87 L/h/kg | Vd [3, 14]: 0.33 L/kg | half-life [3, 14]: 0.42 h | AUC(0-t) [3, 15]: 0.494 µg·h/mL | Cmax [3, 15]: 0.11 µg/mL | Tmax [3, 15]: 2 h | half-life [3, 15]: 5.3 h | solubility [4]: 5.4 µg/mL (≈ 13.1 µM) | IC50 (Trypanosoma cruzi): 0.12 µM | half-life (Mouse liver S9 stability): 2.88 h | IC50 (T. b. brucei 427 [5]): 0.03 µM | Selectivity Index (T. b. brucei 427 [1]): >667 | IC50 (T. b. brucei 427 [1]): 0.015 ± 0.005 mg/L (≈ 0.0363 µM) | IC50 (Leishmania infantum): 3.4 µM | IC50 (T. b. rhodesiense): 0.027 µM

O=[N+]([O-])c1cn2c(n1)S(=O)(=O)CC(OCc1ccc(OC(F)(F)F)cc1)C2 (stereo not drawn) [Compound 19]
IC50 [2]: > 64 µM | Papp at 1 h, 3 µM (in vitro): 624 nm/s | IC50 (L929 mouse fibroblasts): > 10 mg/L | bioavailability [3, 8]: 43% | bioavailability ([3]; plasma, from dose normalised AUClast values, read-out: F (oral bioavailability)): 42% | bioavailability [3, 9]: 37% | AUC(0-t) [3, 10]: 1.77 µg·h/mL | clearance [3, 10]: 0.51 L/h/kg | Vd [3, 10]: 9.1 L/kg | half-life [3, 10]: 14 h | AUC(0-t) [3, 11]: 18.8 µg·h/mL | Cmax [3, 11]: 2.4 µg/mL | Tmax [3, 11]: 4 h | half-life [3, 11]: 3 h | AUC(0-t) [3, 12]: 1.8 µg·h/mL | clearance [3, 12]: 1 L/h/kg | Vd [3, 12]: 3.6 L/kg | half-life [3, 12]: 2.5 h | AUC(0-t) [3, 13]: 18.7 µg·h/mL | Cmax [3, 13]: 2.3 µg/mL | Tmax [3, 13]: 2 h | half-life [3, 13]: 2.7 h | AUC(0-t) [3, 14]: 2.6 µg·h/mL | clearance [3, 14]: 0.69 L/h/kg | Vd [3, 14]: 2.8 L/kg | half-life [3, 14]: 5.9 h | AUC(0-t) [3, 15]: 23.7 µg·h/mL | Cmax [3, 15]: 3 µg/mL | Tmax [3, 15]: 2 h | half-life [3, 15]: 3.3 h | solubility [4]: 10 µg/mL (≈ 24.6 µM) | IC50 (Trypanosoma cruzi): 1.6 µM | half-life (Mouse liver S9 stability): 4.97 h | IC50 (T. b. brucei 427 [5]): 1.1 µM | Selectivity Index (T. b. brucei 427 [1]): >11 | weaker potency vs 12 (fold) (T. b. brucei 427 [1]; T. b. brucei): 5.6 fold | IC50 (T. b. brucei 427 [1]): 0.9 ± 0.4 mg/L (≈ 2.21 µM) | IC50 (Leishmania infantum): > 64 µM | IC50 (T. b. rhodesiense): 0.94 µM

O=[N+]([O-])c1cn2c(n1)[S@@+]([O-])C[C@H](OCc1ccc(OC(F)(F)F)cc1)C2 [Compound 26]
IC50 [2]: > 64 µM | remaining at 1 h [6]: 26% | IC50 (L929 mouse fibroblasts): > 10 mg/L | remaining at 1 h [7]: 91% | IC50 (Trypanosoma cruzi): 6.5 µM | IC50 (T. b. brucei 427 [5]): 34 µM | IC50 (T. b. brucei 427 [1]): > 5 mg/L | IC50 (Leishmania infantum): 41 µM | IC50 (T. b. rhodesiense): 7.3 µM

Source: paper PMC5840523, “Assessment of a pretomanid analogue library for African trypanosomiasis: Hit-to-lead studies on 6-substituted 2-nitro-6,7-dihydro-5H-imidazo[2,1-b][1,3]thiazine 8-oxides” (Bioorganic & Medicinal Chemistry Letters, 2018)
